Entries after “also recorded” stand apart in the source; their conditions may differ. Where a SMILES comes first, the peptide text is derived from it.
Legend:
[1] = test system: IP3R; experiment: IP3 receptor antagonist 2-APB against NPS-evoked calcium signals; assay type: cell-based, mouse
[2] = test system: transient receptor potential channel family; settings: cited from earlier work
From the text: In previous in vitro studies, NPSR1 has been expressed in HEK293 or CHO cells. These studies focused on comparing NPS and NPSR1 variants with respect to their Gαq and Gαs activity, i.e. their efficiency to induce intracellular calcium responses and cAMP production upon receptor stimulation, analyzing population responses from plate readers instead of confocal single-cell calcium imaging.

[3] = test system: SERCA-ATPases; experiment: SERCA inhibition with CPA: calcium leakage and effect on NPS-evoked calcium signals; assay type: cell-based, mouse
[4] = test system: PLC
[5] = test system: NPSR1; experiment: NPSR1 antagonist SHA68 against NPS-evoked calcium signals in NPSR1-expressing hippocampus neurons; assay type: cell-based, human
[6] = test system: voltage activated calcium channels (Cav); experiment: Cav blocker cocktail on NPS-evoked calcium signals; assay type: cell-based, mouse; settings: NPS 500 nM, first application, 148 neurons; mean ± SD
[7] = test system: Colo205 cells expressing NPSR1; settings: cited from earlier work
From the text: (§1) Despite these numerous biological functions, little is known about the molecular mechanisms underlying NPS receptor activity. […] However, the intracellular pathways downstream to NPSR1 activation have not been identified in deta ...

[8] = test system: human NPSR1 variants; settings: HEK293 or CHO cells; ref [1],[10],[23]–[25]; cited from earlier work
From the text: as §1

[9] = test system: ryanodine receptors (RyR); experiment: Ryanodine receptor contribution to NPS-evoked calcium signals; assay type: cell-based, mouse; settings: NPS 500 nM, mean ± SD
[10] = test system: untransfected hippocampus neurons; experiment: Calcium imaging of NPS in untransfected hippocampus neurons (control); assay type: cell-based, mouse; settings: NPS 500 nM, 936 untransfected neurons
[11] = test system: NPSR1-expressing hippocampus neurons, influx of extracellular calcium; experiment: NPS-evoked calcium signals in calcium-free solution / slow component (calcium influx); assay type: cell-based, mouse; settings: NPS 500 nM, mean ± SD
[12] = biological target: T1, human neuropeptide S receptor (NPSR1) (Homo sapiens, UniProt Q6W5P4); experiment: Single-cell calcium imaging (Fluo4) of NPS-evoked calcium signals in hippocampus neurons expressing NPSR1-mCherry; assay type: cell-based
T1 construct: expressed in transfected cells; host or cells: primary hippocampal neurons of P0-P2 C57BL/6 mice, transduced with AAV6 AAV-NPSR1-TS-mCherry-ER (hSyn promoter)
T1 sequence (Q6W5P4 1-371): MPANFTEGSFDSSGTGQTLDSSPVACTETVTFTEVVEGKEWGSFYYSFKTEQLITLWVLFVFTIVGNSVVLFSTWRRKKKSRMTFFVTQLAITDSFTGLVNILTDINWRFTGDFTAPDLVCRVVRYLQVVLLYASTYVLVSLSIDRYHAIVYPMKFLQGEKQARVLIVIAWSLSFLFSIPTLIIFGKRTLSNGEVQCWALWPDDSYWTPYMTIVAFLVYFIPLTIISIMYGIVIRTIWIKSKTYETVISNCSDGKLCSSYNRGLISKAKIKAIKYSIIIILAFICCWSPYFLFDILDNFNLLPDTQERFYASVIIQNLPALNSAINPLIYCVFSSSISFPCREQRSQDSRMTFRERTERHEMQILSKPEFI

[13] = test system: SOCE; experiment: SOCE blockers on slow component of NPSR1-evoked calcium signals; assay type: cell-based, mouse; settings: NPS 500 nM
[14] = test system: store-operated calcium entry (SOCE); experiment: Store-operated calcium entry on re-addition of Ca2+ after NPS in calcium-free solution; assay type: cell-based, mouse; settings: NPS 500 nM, n = 47 cells, mean ± SD
[15] = test system: NPSR1; settings: cited from earlier work
[16] = test system: SOCE; parameters: method as in PMID 12149283, PMID 2173565, PMID 18285445, PMID 21541286; settings: non-excitable cells and neurons; ref [36]–[38], [39]; cited from earlier work
[17] = test system: STIM-mediated SOCE; settings: HeLa cells overexpressing STIM1; ref [50]; cited from earlier work
From the text: Store-operated calcium channels (SOCs) responsible for SOCE are known to be composed by the calcium release-activated calcium modulator 1 (ORAI) and members of the transient receptor potential type c (TRPC) channel families. Channel-activation is induced by interaction with the ER calcium sensor stromal interaction molecule (STIM).

[18] = test system: NPSR1-mediated calcium signals (action potentials suppressed); assay type: cell-based, mouse
[19] = repeated NPS 500 nM, 675 s interval, 111 neurons, mean ± SD, ANOVA p = 0.0133

2-aminoethoxydiphenyl borate [2-APB]
effect of 2-APB on responses to NPS [1]: prevented responses to NPS | normalized mean fluorescence amplitude evoked by NPS after 2-APB washout [1]: 2.2 ± 2.13 | normalized mean fluorescence amplitude evoked by NPS in presence of 2-APB [1]: 0.39 ± 0.61 | modulation of transient receptor potential channel family members [2]: modulates several members of the transient receptor potential channel family

CC(O)=C1C(=O)C2C3c4cccc5[nH]cc(c45)CC3C(C)(C)N2C1=O (centres unmarked) [CPA, cyclopiaconic acid]
normalized mean amplitude evoked by NPS after CPA ([3]; CPA 30 μM (500–650 s), NPS 500 nM, n = 397, mean ± SD, vs baseline p = 0.9992): 0.27 ± 0.4 | transient increase in cytosolic calcium evoked by CPA (fluorescence amplitude) ([3]; CPA 30 μM, 397 neurons, mean ± SD): 1.6 ± 1.17 | effect of CPA on NPSR1-mediated calcium signals ([3]; CPA 30 μM, NPS 500 nM, n = 397, ANOVA p < 0.0001): abolished NPSR1-mediated calcium signals

CSCC[C@H](NC(=O)CNC(=O)[C@@H](NC(=O)CNC(=O)[C@@H](NC(=O)CNC(=O)[C@H](CC(N)=O)NC(=O)[C@H](CCCNC(=N)N)NC(=O)[C@H](Cc1ccccc1)NC(=O)[C@@H](N)CO)C(C)C)[C@@H](C)O)C(=O)N[C@@H](CCCCN)C(=O)N[C@@H](CCCCN)C(=O)N[C@H](C(=O)N[C@@H](CO)C(=O)N[C@@H](Cc1ccccc1)C(=O)N[C@@H](CCC(N)=O)C(=O)N[C@@H](CCCNC(=N)N)C(=O)N[C@@H](C)C(=O)N[C@@H](CCCCN)C(=O)N[C@@H](CO)C(=O)O)[C@@H](C)O [NPS, neuropeptide S] (H-SFRNGVGTGMKKTSFQRAKS-OH; N-terminus and C-terminus assumed)
mean fluorescence amplitude evoked by NPS, first application before U73122 [4]: 3.44 ± 1.27 | normalized mean fluorescence amplitude, NPS before SHA68 ([5]; NPS 250 nM, 204 neurons, mean ± SD): 2.9 ± 1.8 | integral of response amplitude during recovery phase, control conditions [6]: 36.2 ± 7.5 x 10^4 (arbitrary units) | cell proliferation and MAP kinase phosphorylation [7]: dose-dependent stimulation of cell proliferation and MAP kinase phosphorylation | calcium mobilization and cAMP accumulation [8]: elicit calcium mobilization and cAMP accumulation | normalized mean fluorescence amplitude evoked by NPS prior to ryanodine ([9]; 136 neurons): 2.7 ± 1.48 | normalized mean fluorescence amplitude, control recordings without ryanodine, first NPS application ([9]; 155 control neurons): 2.35 ± 1.9 | normalized mean fluorescence amplitude, control recordings without ryanodine, second NPS application ([9]; 155 control neurons): 1.74 ± 1.4 | amplitude of second NPS application normalized to the first, control cells ([9]; no ryanodine): 0.77 ± 0.35 | normalized mean fluorescence amplitude evoked by NPS, first application before 2-APB ([1]; NPS 500 nM, 166 neurons, mean ± SD): 3.86 ± 2.34 | calcium response to NPS in untransfected neurons [10]: no increase in normalized mean fluorescence intensity could be detected; also recorded: calcium responses could not be detected | integral of response amplitude over time, slow component, control conditions ([11]; 3 mM CaCl2, 229 cells): 36.6 ± 8.3 x 10^4 (arbitrary units) | integral of response amplitude over time, slow component, Ca2+-free solution ([11]; Ca2+-free, 5 mM EGTA, 65 neurons, t-test p < 0.0001): 23.4 ± 3.9 x 10^4 (arbitrary units) | amplitude of initial fast component of NPS-evoked calcium signal, calcium-free conditions ([11]; nominally calcium-free, 5 mM EGTA, 65 neurons, t-test vs control p = 0.1054): 2.9 ± 1.9 | mean fluorescence amplitude evoked by NPS before CPA ([3]; NPS 500 nM, 397 neurons, mean ± SD): 4.4 ± 2.69 | increase in normalized mean fluorescence (f/f0) over baseline [12]: 3.5 ± 2.9 | rise time of NPSR1-dependent calcium signal (5–95% of max) ([12]; NPS 500 nM, initial rapid component, mean ± SD): 9.47 ± 5.77 s | decay time of NPSR1-dependent calcium signal (95–5% of max) ([12]; NPS 500 nM, slower recovery phase, mean ± SD): 132.71 ± 94.11 s | normalized mean fluorescence amplitude, 1st application [12, 19]: 3.6 ± 3.1 | normalized mean fluorescence amplitude, 2nd application [12, 19]: 3.2 ± 3.3 | normalized mean fluorescence amplitude, 3rd application [12, 19]: 2.4 ± 2.3 | integral of response amplitude of slow component, control conditions (no SOCE blocker) ([13]; 229 cells, mean ± SD): 36.6 ± 8.3 x 10^4 (arbitrary units) | integral of response amplitude after re-addition of Ca2+, NPS applied once again under Ca2+-free conditions ([14]; ANOVA p < 0.0001): 5.9 ± 4.9 x 10^4 (arbitrary units) | integral of response amplitude after re-addition of Ca2+, first NPS application under calcium-free conditions ([14]; control without NPS 2.1 ± 3.2 x 10^4): 14.8 ± 7.2 x 10^4 (arbitrary units)

O=C(NCc1ccc(F)cc1)N1CCN2C(=O)OC(c3ccccc3)(c3ccccc3)C2C1 (centres unmarked) [SHA68, 3-oxo-1,1-diphenyl-tetrahydro-oxazolo[3,4-a]pyrazine-7-carboxylic acid 4-fluoro-benzylamide]
effect of SHA68 on NPS-evoked Ca2+ signals [5]: NPS application failed to induce Ca^2+ signals in the same neurons; also recorded: reduced the effect of NPS to a level non-significantly different from baseline | normalized mean fluorescence amplitude evoked by NPS after washout of SHA68 [5]: 1.2 ± 1.6 | normalized mean fluorescence amplitude evoked by NPS in presence of SHA68 [5]: 0.5 ± 0.7 | effect on NPS-mediated calcium mobilization [15]: blocks NPS-mediated calcium mobilization

COc1ccc(CCCOC(Cn2ccnc2)c2ccc(OC)cc2)cc1 (centres unmarked) [SKF96365]
inhibition of SOCE [16]: inhibit SOCE | inhibition of STIM-mediated SOCE [17]: inhibit STIM-mediated SOCE | effect on duration and amplitude of slow component of NPSR1-evoked calcium signals ([13]; ML-9 50 μM, SKF96365 15 μM): consistently reduced the duration and amplitude of the slow component | integral of response amplitude of slow component in presence of SKF96365 ([13]; SKF96365 15 μM (300 s pre-incubation), 127 cells, mean ± SD): 30.42 ± 3.8 x 10^4 (arbitrary units)

NC1=N[C@H](O)[C@H]2[C@H]3O[C@]4(O)O[C@@H]([C@@H](O)[C@@]2(N1)[C@@H]4O)[C@]3(O)CO [TTX, tetrodotoxin]
effect of TTX on NPSR1-mediated calcium signals [18]: not affected

COc1ccc2c(c1)CC[C@@H]1[C@@H]2CC[C@]2(C)[C@@H](NCCCCCCN3C(=O)C=CC3=O)CC[C@@H]12 [U73122]
effect of U73122 on NPS-mediated calcium release [4]: abolished NPS-mediated calcium release | mean fluorescence amplitude when U73122 and NPS were co-applied [4]: 0.14 ± 0.14

ryanodine
normalized mean fluorescence amplitude evoked by NPS in presence of ryanodine ([9]; ryanodine 50 μM (300 s pre-incubation), 136 neurons, ANOVA p < 0.0001): 0.51 ± 0.37 | amplitude of second NPS application normalized to the first, RyRs blocked ([9]; ryanodine 50 μM, t-test vs control p < 0.0001): 0.24 ± 0.25

— publication PMC4340626, “Neuronal Expression of the Human Neuropeptide S Receptor NPSR1 Identifies NPS-Induced Calcium Signaling Pathways” (PLoS ONE, 2015)
